We go through one compound from patent US20200316208A1, “MECHANICAL PROCESSING OF BIOPOLYMERS” (SolyPlus Berlin GmbH, priority 2017, published 2020).

For this test, the system named is skin. Conditions: application to skin; 0.3% (m/m) histamine dihydrochloride solution used.

As for `Cl.Cl.NCCc1c[nH]cn1` [histamine solution droplet, Histamine dihydrochloride], the “skin reaction (swelling, reddening, itchy feeling)” value is “No effect”.
